Experimental data as given in patent US4968696A, “N,N'-bis-L-amino acid-L-cystine-peptide containing amino acid preparations for oral parenteral nutrition” (Pfrimmer + Co. Pharmazeutische Werke Erlangen GmbH + co. KG, priority 1986, dated 1990).
Read-outs that look alike come from different tables or passages of the source. Where a SMILES comes first, the peptide text is derived from it. Bridges are numbered along the chain shown (N, C = ends). Roman numbers before positions name the chains, in order.

How the values were obtained:
[1] = In vivo utilization: single injection via vena cava catheter, plasma peptide/amino acid concentrations by RP-HPLC after DANSYL derivatization; set-up: species or system male Wistar-rats; details: for tripeptide concentration in plasma: 20 μmol/100 g bw
Experimental: For physiological investigation of the in vivo utilization of bis-amino acid cystine-peptides bis-glycyl-L-cystine and bis-L-alanyl-L-cystine were selected as examples and injected into male Wistar-rats in the form of a peptide single injection (50 μmole/100 g bw and 20 μmole/100 g bw respectively, injection volume 0.5-1 ml), by means of a vena cava-catheter within 5 s. The withdrawal of blood (1 ml in herparinized syringes) was 30, 60, 120, 180 and 300 s after application of the peptides. The plasma obtained by centrifugation was subsequently treated with 30% SSA (ratio of sample to SSA 10:1) for precipitation, maintained 1 h at 4° C., and finally centrifuged.
For determination of the bis-glycyl-L-cystine, mono-glycyl-L-cystine, bis-L-alanyl-L-cystine, mono-L-alanyl-L-cystine peptides as well as of the free amino acids glycine, alanine and cystine the precipitated plasma samples were analysed by high pressure liquid chromatography after pre-column derivatization with 5 dimethylaminonaphthaline-1-sulphonylchloride (DANSYL-Cl). The analytical conditions are summarized below:
RP-HPLC after DANSYL-Precolumn Derivatization
Column: Spherisorb ODS 11 3 μm (125×4.6 mm)
(A) 12.5 mM Na-phosphate-buffer of pH 6.6
Detection: fluorescence Em 550/Ex 325

Solubility in water = assay type: physicochemical
[2] = Sterilization tests (heat sterilization of aqueous peptide solutions, analysed by capillary isotachophoresis and HPLC); assay type: physicochemical; details: heat sterilization (121° C.)
Experimental: Starting from a stock solution of the tripeptide of the invention so obtained (2 mmol/1 in tris-buffer) solutions having pH-values of 5.5, 6.5, 7.5 and 8.5 were prepared by addition of 0.1 N HCL or KOH, respectively. Thereafter 0.1 ml each of these solutions were filled into ampoules purified with chromosulfuric acid, met sealed under vacuum and sterilized over 8, 12, 15 or 30 min, respectively.
Further respective solution of the cystinyl-bis-alanine-tripeptide were prepared and treated analogeously.
The stock solutions as well as the sterilized samples were analysized by means of capillary-isotachophoreses and HPLC. […] Therefore, said tripeptides are not only suitable for oral preparations, but also and in particular for the preparation of parenteral infusion solutions.

[3] = cited from earlier work
[4] = 30 s after injection, 50 μmole/100 g bw
[5] = first measurement (30 s), 20 μmole/100 g bw

SMILES: C[C@H](N)C(=O)N[C@@H](CSSC[C@H](NC(=O)[C@H](C)N)C(=O)O)C(=O)O [(ala-cys)2, N,N'-bis-L-alanyl-L-cystine] (I: H-Ala-Cys-OH / II: H-Ala-Cys-OH; disulfide I:2-II:2)
- time after injection within which the tripeptide could be detected in all 6 test animals ([1]; 20 μmole/100 g bw): ≤ 2 min
- time of maximum plasma alanine concentration ([1]; 20 μmole/100 g bw): 30 s
- time of maximum plasma cystine concentration ([1]; 20 μmole/100 g bw): 60 s
- tripeptide concentration in plasma ([1]; 30 s after injection): 280 µM
- concentration of intermediate hydrolysis product ala-(cys)2 relative to the tripeptide ([1]; 30 s after injection, 20 μmole/100 g bw): about 5 fold
- detection of tripeptide in plasma at the last sampling ([1]; 300 s after injection, 20 μmole/100 g bw): could not be detected
- maximum plasma cystine concentration versus starting concentration ([1]; after 60 s, 20 μmole/100 g bw): 23 times
- plasma alanine concentration versus starting level ([1]; after 300 s, 20 μmole/100 g bw): 3 times
- plasma alanine concentration versus starting level ([1]; at the beginning (30 s), 20 μmole/100 g bw): ~7 times
- level at time molar at 0.05 h ([1]; male, Wistar, rat, plasma, iv, 20 umole/100 g bw, heading: tripeptide concentration in plasma, 180 s after injection, detected in one sample only, 20 μmole/100 g bw): ~20 µM
- half-life ([1]; male, Wistar, rat, plasma, iv, 20 μmole/100 g bw, concluded from data, not calculable, read-out: plasma half-life): < 2 min
- clearance from the plasma after single injection ([1]; rat): rapidly cleared from the plasma
- solubility in water (Solubility in water): well soluble in water
- stability upon heat sterilization in aqueous solution [2]: remain stable upon heat sterilization

SMILES: NCC(=O)N[C@@H](CSSC[C@H](NC(=O)CN)C(=O)O)C(=O)O [(gly-cys)2, N,N'-bis-glycyl-L-cystine] (I: H-Gly-Cys-OH / II: H-Gly-Cys-OH; disulfide I:2-II:2)
- solubility in water (prior art statement) [3]: soluble
- tripeptide plasma concentration 5 min after injection relative to the value after 30 s ([1]; 50 μmole/100 g bw single injection, rat plasma): about 10%
- tripeptide concentration in plasma ([1]; 30 s after injection): 655 µM
- plasma cystine concentration versus starting concentration [1, 4]: 14 fold
- plasma glycine concentration versus starting concentration [1, 4]: 12 fold
- plasma cystine concentration versus starting value ([1]; 5 min after injection, 50 μmole/100 g bw): about 30 times
- plasma cystine concentration versus starting point [1, 5]: 10 fold
- plasma glycine concentration versus starting point [1, 5]: 5 fold
- half-life ([1]; male, Wistar, rat, plasma, iv, two compartment model, residual method, n=5, 50 μmole/100 g bw, read-out: calculated half-life (converted)): 4 min
- clearance from the plasma after single injection ([1]; rat): rapidly cleared from the plasma

SMILES: C[C@H](NC(=O)[C@@H](N)CSSC[C@H](N)C(=O)N[C@@H](C)C(=O)O)C(=O)O [L-cystinyl-bis-L-alanine] (I: H-Cys-Ala-OH / II: H-Cys-Ala-OH; disulfide I:1-II:1)
- solubility in water (Solubility in water): well soluble in water
- stability upon heat sterilization in aqueous solution [2]: unstable upon heat sterilization
- time of heat sterilization after which other derivatives are formed [2]: ≤ 8 min

SMILES: CC(=O)N[C@@H](CSSC[C@H](NC(C)=O)C(=O)O)C(=O)O [N,N'-bis-acetylcystine, reference compound]
- solubility in water (prior art statement) [3]: relatively high solubility in water
